{"source": "patent US20210386752A1", "about": "“Uses of Electron Transport Chain Complex I or Complex II Inhibitors in Treating Cancer, Combination Therapies, and Diagnostic Methods Related Thereto” (Emory University, priority 2020, published 2021)", "key": {"citrate synthase": {"target": "T1, citrate synthase (Homo sapiens, UniProt O75390)", "T1 construct": "Citrate synthase activity assay was measured in 0.3×10^6 cells harvested per sample and washed with PBS; endogenous in cells; host or cells: KMS11 multiple myeloma cells", "T1 sequence (O75390 28-466)": "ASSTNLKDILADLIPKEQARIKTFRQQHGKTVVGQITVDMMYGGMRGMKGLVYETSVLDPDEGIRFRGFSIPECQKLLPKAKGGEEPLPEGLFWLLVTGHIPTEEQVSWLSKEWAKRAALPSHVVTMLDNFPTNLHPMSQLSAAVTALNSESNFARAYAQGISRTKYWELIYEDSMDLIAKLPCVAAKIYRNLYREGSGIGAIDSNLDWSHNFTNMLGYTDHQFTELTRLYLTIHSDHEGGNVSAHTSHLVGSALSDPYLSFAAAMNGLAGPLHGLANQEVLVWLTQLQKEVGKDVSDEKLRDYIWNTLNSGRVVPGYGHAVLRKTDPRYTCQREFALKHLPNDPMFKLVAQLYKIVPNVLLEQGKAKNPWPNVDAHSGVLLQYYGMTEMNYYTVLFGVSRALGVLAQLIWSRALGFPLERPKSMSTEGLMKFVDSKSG", "assay": "Citrate synthase (CS) activity assay", "assay_type": "biochemical", "settings": "TTFA-treated KMS11 cells", "protocol": "Citrate synthase activity assay was measured in 0.3×10^6 cells harvested per sample and washed with PBS. Cells were resuspended in 10 mM Tris (pH 8.5) and 0.1% Triton X-100 assay buffer, containing 300 μM acetyl CoA and 100 μM 5,5′-dithiobis(2-nitrobenzoic acid) (DTNB=molar extinction coefficient 13.6 mM^−1 cm^−1). Reaction was started by the addition of 0.5 mM oxaloacetic acid and change in absorbance recorded at 412 nm wavelength every min for 10 min. SQR, SDH and CS activity measurements were performed with 100 μL sample containing 0.3×10^6 permeabilized cells."}, "MM cell lines": {"test_system": "MM cell lines", "assay": "Spare respiratory capacity (Seahorse XFe96 stress assay)", "assay_type": "cell-based", "settings": "TTFA treated KMS11 cells", "method": "Spare capacity in venetoclax-sensitive and venetoclax -resistant cells was determined by subtracting basal OCR from maximal OCR."}, "[1]": {"test_system": "non-MM cells contained within the aspirate", "method": "Bone marrow aspirate samples from 50 MM patients were treated with three doses of venetoclax (0.01, 0.1 and 0.5 μM) or TTFA (100 μM), or the combination for 24 h and cell death was assessed by AnnexinV staining.\nThe efficacy of IACS-010759 in sensitizing was tested in […] patient samples to venetoclax."}}, "data": [{"smiles": "O=C(CC(=O)C(F)(F)F)c1cccs1", "note": "[TTFA, 4,4,4-trifluoro-1-(2-thienyl)-1,3-butanedione]", "values": [{"measurement": "CS activity", "setting": "citrate synthase", "result": "remained unaffected"}, {"measurement": "spare respiratory capacity (SRC)", "setting": "MM cell lines", "result": "concordantly reduced"}, {"measurement": "viability of non-MM cells", "setting": "[1]", "result": "no to minimal impact on viability"}]}]}
